From US20180037605A1, “SYNTHETIC PEPTIDES AND ENZYMATIC FORMATION OF INTRACELLULAR HYDROGELS” (BRANDEIS UNIVERSITY, priority 2015, published 2018)
≈ marks a conversion by molar mass, not a printed value.

How the values were obtained:
[1] = tested on: HeLa cells; test: MTT cell viability, HeLa; assay type: cell-based; settings: third day (72 h)
Method: D-7 and D-10 (FIG. 12A), the enantiomers of L-7 and L-10, were prepared as described in Example 3. HeLa and SKOV3 cells were used in an MTT assay for assessing cytotoxicity of the peptides against these cancer cell lines.

[2] = tested on: A2780 cells; test: MTT cell viability, A2780; assay type: cell-based
[3] = tested on: SKOV3 cells; test: LC-MS of cell lysates and culture medium, SKOV3; assay type: cell-based
Method: (§1) After confirming that CES converts the precursor L-10 or D-10 into the hydrogelator L-12 or D-12, the stability of the precursors (L-10 or D-10) when incubated with the ovarian cancer cells was determined. After culturing the precursors with SKOV3 or A2780cis cells at 37° C. for 4 hours, the cell lysates and culture medium were collected for liquid chromatography-mass spectrometry (LC-MS) analysis and the intracellular concentrations of the precursors, the hydrogelators, and the relevant proteolyzed products were determined. After incubation with SKOV3 or A2780cis cells for 4 hours, more than 85% of the precursors (L-10 or D-10) turned into the corresponding hydrogelators (L-12 or D-12; see Table 1 below).

[4] = tested on: A2780cis cells; test: LC-MS of cell lysates, A2780cis; assay type: cell-based; settings: 100 μm D-10
Method: as §1

[5] = tested on: PC-12 cells; test: MTT cell viability, PC-12 neuronal cells; assay type: cell-based, rat
Method: (§3) The cells were seeded in exponential growth phase in a 96 well plate at a concentration of 1×10^4 cell/well with 100 μL of culture medium. Cells were allowed to attach for 24 hours at 37° C., 5% CO2 and then the culture medium was removed with the help of vacuum pump. Culture medium containing the precursors in gradient concentrations was added to each well (0 μM as control). 10 μL of 5 mg/mL MTT ((3-(4,5-Dimethylthiazol-2-yl)-2,5-diphenyltetrazolium bromide) was added to each well after 24 hours, 48 hours, and 72 hours incubation. After 4 hours incubation of the plated cells in dark place, 100 μL 10% SDS with 0.01 M HCl was added to each well to dissolve the purple formazan and to stop the reduction reaction. 24 hours later, the absorbance of the solution at 595 nm was finally measured with a DTX 880 Multimode Detector.

[6] = tested on: HCC1937 cells; test: MTT cell viability, HCC1937; assay type: cell-based; settings: third day (72 h)
[7] = tested on: MCF-7 cells; test: MTT cell viability, MCF-7; assay type: cell-based; settings: third day (72 h)
Method: as §3

[8] = tested on: Saos-2 cells; test: MTT cell viability, Saos-2; assay type: cell-based; settings: third day (72 h)
Method: as §3

[9] = tested on: MES-SA cells; test: MTT cell viability, MES-SA; assay type: cell-based; settings: third day (72 h)
Method: as §3

[10] = tested on: MES-SA/D×5 cells; test: MTT cell viability, MES-SA/D×5; assay type: cell-based; settings: third day (72 h)
Method: as §3

[11] = tested on: A375 cells; test: MTT cell viability, A375; assay type: cell-based; settings: third day (72 h)
Method: as §3

[12] = tested on: HepG2 cells; test: MTT cell viability, HepG2; assay type: cell-based; settings: third day (72 h)
Method: as §3

[13] = tested on: U87MG cells; test: MTT cell viability, U87MG; assay type: cell-based; settings: 72 hours incubation
Method: as §3

[14] = tested on: T98G cells; test: MTT cell viability, T98G; assay type: cell-based; settings: 72 hours incubation
Method: as §3

[15] = tested on: co-cultured HS-5 and SKOV3 cells; test: Cell viability of co-cultured HS-5 and SKOV3 cells; assay type: cell-based; settings: D-10 37 μg/mL
Method: (§2) 5×10^3 of SKOV3 cells (or A2780cis) and 5×10^3 HS-5 cells per well were seeded together and co-cultured in DMEM medium. Based on the results in FIG. 22, the concentrations of L-10 and D-10 at 73 and 37 μg/mL, respectively, were chosen. […] The inhibitory activities of L-10 and D-10 towards the co-culture agree well with their cytotoxicity against A2780cis, SKOV3, and H-5 cells. […] For example, on the first day, the cell viabilities of co-cultured HS-5 and SKOV3 cells and co-cultured HS-5 and A2780cis cells treated by D-10 (37 μg/mL) were 79% and 80%, respectively. While on the third day, the cell viabilities dropped to 44% and 57%, respectively. […] Contrary to the case of D-10, the efficacies of L-10 were almost the same between day two and day three (FIG. 25A), which agreed with the lower in vivo stability of L-10 than that of D-10.

[16] = tested on: co-cultured HS-5 and A2780cis cells; test: Cell viability of co-cultured HS-5 and A2780cis cells; assay type: cell-based; settings: D-10 37 μg/mL
Method: as §2

[17] = tested on: SKOV3 cells
Method: SKOV3 cells were seeded in exponential growth phase in a 96 well plate at a concentration of 1×10^4 cell/well with 100 μL of McCoy's 5A medium modified supplemented with 10% fetal bovine serum (FBS), 100 U/mL penicillin and 100 μg/ml streptomycin. The cells were allowed to attach to the wells for 24 hours at 37° C., 5% CO2. The culture medium was removed and 100 μL culture medium containing compounds (immediately diluted from fresh prepared stock solution of 10 mM) at gradient concentrations (0 μM as the control) was placed into each well. McCoy's 5A medium modified was regarded as blank. After culturing at 37° C., 5% CO2 for 24 hours, 48 hours, and 72 hours, 10 μL of 5 mg/mL MTT (3-(4,5-Dimethylthiazol-2-yl)-2,5-diphenyltetrazolium bromide) was added to each well, and the plated cells were incubated in dark place for 4 hours. 100 μL 10% SDS with 0.01 M HCl was added to each well to stop the reduction reaction and to dissolve the purple formazan. After incubation of the cells at 37° C. for overnight, the OD at 595 nm of the solution was measured in a microplate reader.
as §3

[18] = tested on: A2780cis cells
[19] = tested on: HS-5 cells; settings: 72 h
Method: as §3

[20] = mouse, in vivo, 20 mg/kg
[21] = in vitro; settings: human
Method: as §3

[22] = tested on: HS-5 cells; test: MTT cell viability, HS-5 stromal cells; settings: 20 μM (D-10) and 50 μM (L-10)
Method: as §3

[23] = Systemic toxicity after intravenous injection in mice; settings: 5 to 20 mg/kg, after 7 days
[24] = combination of D-10 and CP, 72 hours
[25] = SKOV3 cell lysates, 4 hours, 37° C., 20 μm D-10 or 50 μm L-10

O=C(CCC(=O)OCCNC(=O)[C@@H](Cc1ccccc1)NC(=O)[C@@H](Cc1ccccc1)NC(=O)Cc1ccc2ccccc2c1)NCCS(=O)(=O)O [D-10]
IC50, HeLa [1]: 27 µg/mL (≈ 36.9 µM) | viability of A2780 cells, combination with CP [2, 24]: 9% | IC50, A2780 ([2]; third day (72 h)): 37 µg/mL (≈ 50.6 µM) | cumulative intracellular concentration of precursor and hydrogelator relative to incubation concentration ([3]; 4 hours incubation): about 5 fold | Ratio of hydrogelator to precursor after 4 hours ([3]; SKOV3 cell lysates, 20 μm D-10 or 50 μm L-10): 6.75 | Hydrogelator (12) intracellular concentration [3, 25]: 108 μm | Precursor (10) intracellular concentration [3, 25]: 16 μm | Ratio of hydrogelator to precursor after 4 hours [4]: 8.43 | Hydrogelator (12) intracellular concentration ([4]; 4 hours, 37° C.): 582 μm | Precursor (10) intracellular concentration ([4]; 4 hours, 37° C.): 69 μm | inhibition of PC-12 cells ([5]; 20 μM (D-10) and 50 μM (L-10)): hardly inhibited | IC50, PC-12 ([5]; third day (72 h)): 62 µg/mL (≈ 84.8 µM) | IC50, HCC1937 [6]: 26 µg/mL (≈ 35.6 µM) | IC50, MCF-7 [7]: 25 µg/mL (≈ 34.2 µM) | IC50, Saos-2 [8]: 44 µg/mL (≈ 60.2 µM) | IC50, MES-SA [9]: 31 µg/mL (≈ 42.4 µM) | IC50, MES-SA/D×5 [10]: 163 µg/mL (≈ 223 µM) | IC50, A375 [11]: 38 µg/mL (≈ 52 µM) | IC50, HepG2 [12]: 88 µg/mL (≈ 120 µM) | IC50, U87MG [13]: 126 µg/mL (≈ 172 µM) | IC50, T98G [14]: 145 µg/mL (≈ 198 µM) | cell viability of co-cultured HS-5 and SKOV3 cells ([15]; first day): 79% | cell viability of co-cultured HS-5 and SKOV3 cells ([15]; third day): 44% | cell viability of co-cultured HS-5 and A2780cis cells ([16]; first day): 80% | cell viability of co-cultured HS-5 and A2780cis cells ([16]; third day): 57% | inhibition of SKOV3 ovarian cancer cells ([17]; 48 h, 50 μM): over 70% | IC50, SKOV3 ([17]; 72 h): 31 µg/mL (≈ 42.4 µM) | inhibition of SKOV3 cells by mixture with CP ([17]; 72 h, 15 μg/mL): about 74% | viability of SKOV3 cells ([17]; human, 72 hours, 37 μg/mL): 10% | inhibition of A2780cis cells by combination with CP [18, 24]: 70% | IC50, A2780cis ([18]; third day (72 h)): 36 µg/mL (≈ 49.3 µM) | IC50, HS-5 [19]: 50 µg/mL (≈ 68.4 µM) | tolerability [20]: well tolerated | viability at 3 day, 37 μg/mL [21]: ~80% | inhibition of HS-5 cells [22]: hardly inhibited | effect on weight and organ index of mice [23]: hardly affected
